Data on eight compounds can be found in patent publication US10696707B2, “Polyene macrolide derivative” (Shionogi & Co., Ltd., priority 2014, dated 2020).

pIC50: −log10 of the molar value. ≈ marks a conversion by molar mass, not a printed value. Read-outs that look alike come from different tables or passages of the source.

What all share (type): cell-based
One experiment concerns A. fumigatus ATCC204305. Description: Antifungal activity test, MIC by broth microdilution (CLSI M38-A2). To be noted: A. fumigatus ATCC204305, 35° C., 24-48 hours. As for the experimental part:
(§1) The Minimum Inhibitory Concentration (MIC) values of the present compound against yeast and filamentous fungi were determined by broth microdilution assay according to the Clinical Laboratory Standards Institute (CLSI) guidelines outlined in documents M27-A3 and M38-A2. The medium used in the assay consisted of RPMI1640 (with glutamine, without bicarbonate) with 2% glucose and 0.165 mol/L morpholinepropanesulfonic acid (MOPS) with pH adjusted to 7.0 using 1 mol/L sodium hydroxide. The present compound was dissolved in dimethyl sulfoxide (DMSO). A series of two-fold dilutions were prepared in DMSO, and then 2 μL of the diluted compound was added to each well in 96-well sterile plates. Each inoculum was prepared by diluting a suspension of Candida spp. or a conidia suspension of Aspergillus spp. suspended in sterile saline solution, and then 200 μL was added to each well to a predetermined concentration using RPMI/MOPS (final concentration for each solution: approximately 1×10^3 cells/mL and approximately 1×10^4 CFU/mL). Plates of Candida spp. and Aspergillus spp. were incubated at 35° C. for 24-48 hours. The MIC was defined as the lowest concentration giving 100% inhibition compared to the growth control.
(Dilution methods test growth across graded concentrations, often in twofold steps.)

The next experiment has as its system A. flavus ATCC204304. The experiment is described as above. To be noted: A. flavus ATCC204304, 35° C., 24-48 hours. As for the experimental part:
as §1

Another experiment relates to C. albicans ATCC90028. Kind of experiment: Antifungal activity test, MIC by broth microdilution (CLSI M27-A3). The following applies: C. albicans ATCC90028, 35° C., 24-48 hours. As for the experimental part: as §1
The subject of experiment [1] is red blood cells (5% RBC suspension). Kind of experiment: Test Example 2-1: in vitro hemolytic activity test (upper limit 50, 80, 100 or 200 μmol/L). The following applies: 5% RBC suspension, 37° C., one hour, read-out: hemolysis IC50. In outline: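 A 5% suspension of washed red cells in Earle's medium was exposed to doubling dilutions of compound from DMSO, with maxima of 50, 80, 100 or 200 μmol/L final, for 1 h at 37 °C, 5% CO2. Supernatant absorbance at 540 nm was normalised to water-lysed cells. IC50 is the concentration giving 50% hemolysis; ">" values exceed the top concentration.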

The mark [2] stands for this setting: Aspergillus fumigatus, broth microdilution, 100% inhibition, read-out: MIC.
[3] abbreviates: Aspergillus flavus, broth microdilution, 100% inhibition, read-out: MIC.
Where [4] appears, read: Candida albicans, broth microdilution, 100% inhibition, read-out: MIC.
Where [5] appears, read: broth microdilution, 100% inhibition.
The mark [6] stands for this setting: lowest concentration giving 100% inhibition.

Usually MIC stands for the least concentration at which growth counts as inhibited. The pIC50 is the IC50 on a negative log10 scale, so that one unit is a factor of ten. On to `C[C@@H]1[C@H](O)[C@@H](C)/C=C/C=C/C=C/C=C/C=C/C=C/C=C/[C@H](O[C@@H]2O[C@H](C)[C@@H](O)[C@H](N)[C@@H]2O)C[C@@H]2O[C@](O)(C[C@@H](O)C[C@@H](O)[C@H](O)CC[C@@H](O)C[C@@H](O)CC(=O)O[C@H]1C)C[C@H](O)[C@H]2NC(=O)NC(CO)CO` [I-40], for which the minimum inhibitory concentration (MIC) came to 0.25 µg/mL (≈ 0.247 µM) in the experiment on A. fumigatus ATCC204305 (setting [2]), 0.5 µg/mL (≈ 0.494 µM) with A. flavus ATCC204304 (setting [3]) and 0.125 µg/mL (≈ 0.123 µM) in the experiment with C. albicans ATCC90028 (setting [4]). Besides, the negative-log IC50 (pIC50) in experiment [1] (Erythrocyte, 1 h, hemolysis method 80 (upper concentration 80 μmol/L)) was below 4.10.

For `C[C@@H]1[C@H](O)[C@@H](C)/C=C/C=C/C=C/C=C/C=C/C=C/C=C/[C@H](O[C@@H]2O[C@H](C)[C@@H](O)[C@H](N)[C@@H]2O)C[C@@H]2O[C@](O)(C[C@@H](O)C[C@@H](O)[C@H](O)CC[C@@H](O)C[C@@H](O)CC(=O)O[C@H]1C)C[C@H](O)[C@H]2NC(=O)NC[C@H](O)CC(=O)O` [I-250], the MIC in the experiment with A. fumigatus ATCC204305 (setting [5]) was determined as 1 µg/mL (≈ 0.961 µM); in the experiment with A. flavus ATCC204304 (setting [5]), 0.5 µg/mL (≈ 0.481 µM); in the experiment with C. albicans ATCC90028 (setting [5]), 0.5 µg/mL (≈ 0.481 µM). For the same compound, in experiment [1] (hemolysis method 50 (upper concentration 50 μmol/L)), the pIC50 is below 4.30.

On to `C[C@@H]1[C@H](O)[C@@H](C)/C=C/C=C/C=C/C=C/C=C/C=C/C=C/[C@H](O[C@@H]2O[C@H](C)[C@@H](O)[C@H](N)[C@@H]2O)C[C@@H]2O[C@](O)(C[C@@H](O)C[C@@H](O)[C@H](O)CC[C@@H](O)C[C@@H](O)CC(=O)O[C@H]1C)C[C@H](O)[C@H]2NC(=O)N(O)C[C@H](O)CO` [I-275], for which the MIC amounted to 0.5 µg/mL (≈ 0.486 µM) with A. fumigatus ATCC204305 (setting [5]), 1 µg/mL (≈ 0.973 µM) in the experiment on A. flavus ATCC204304 (setting [5]) and 0.5 µg/mL (≈ 0.486 µM) with C. albicans ATCC90028 (setting [5]).

For the compound `C[C@@H]1[C@H](O)[C@@H](C)/C=C/C=C/C=C/C=C/C=C/C=C/C=C/[C@H](O[C@@H]2O[C@H](C)[C@@H](O)[C@H](N)[C@@H]2O)C[C@@H]2O[C@](O)(C[C@@H](O)C[C@@H](O)[C@H](O)CC[C@@H](O)C[C@@H](O)CC(=O)O[C@H]1C)C[C@H](O)[C@H]2NC(=O)N(O)CC(=O)O` [I-276], the minimal inhibitory concentration (MIC) in the experiment with A. fumigatus ATCC204305 (setting [5]), in the experiment on A. flavus ATCC204304 (setting [5]) and with C. albicans ATCC90028 (setting [5]) was 0.5 µg/mL (≈ 0.494 µM) throughout.

`C[C@@H]1[C@H](O)[C@@H](C)/C=C/C=C/C=C/C=C/C=C/C=C/C=C/[C@H](O[C@@H]2O[C@H](C)[C@@H](O)[C@H](N)[C@@H]2O)C[C@@H]2O[C@](O)(C[C@@H](O)C[C@@H](O)[C@H](O)CC[C@@H](O)C[C@@H](O)CC(=O)O[C@H]1C)C[C@H](O)[C@H]2NC(=O)NOCC(=O)O` [I-278]: the MIC in the experiment on A. fumigatus ATCC204305 (setting [2]), in the experiment on A. flavus ATCC204304 (setting [3]) and with C. albicans ATCC90028 (setting [4]) was 0.5 µg/mL (≈ 0.494 µM) each time.

As for `C[C@@H]1[C@H](O)[C@@H](C)/C=C/C=C/C=C/C=C/C=C/C=C/C=C/[C@H](O[C@@H]2O[C@H](C)[C@@H](O)[C@H](N)[C@@H]2O)C[C@@H]2O[C@](O)(C[C@@H](O)C[C@@H](O)[C@H](O)CC[C@@H](O)C[C@@H](O)CC(=O)O[C@H]1C)C[C@H](O)[C@H]2NC(=O)N1C[C@@](O)(C(=O)O)[C@@](O)(C(=O)O)C1` [I-298], the MIC in the experiment with A. fumigatus ATCC204305 (setting [2]) came out at 0.5 µg/mL (≈ 0.45 µM); in the experiment with A. flavus ATCC204304 (setting [3]) it was 1 µg/mL (≈ 0.899 µM); in the experiment on C. albicans ATCC90028 (setting [4]), 0.5 µg/mL (≈ 0.45 µM).

For `C[C@@H]1[C@H](O)[C@@H](C)/C=C/C=C/C=C/C=C/C=C/C=C/C=C/[C@H](O[C@@H]2O[C@H](C)[C@@H](O)[C@H](NC(=O)CN(C)C)[C@@H]2O)C[C@@H]2O[C@](O)(C[C@@H](O)C[C@@H](O)[C@H](O)CC[C@@H](O)C[C@@H](O)CC(=O)O[C@H]1C)C[C@H](O)[C@H]2NC(N)=O` [I-325], the values for the minimum inhibitory concentration (MIC) in the experiment on A. fumigatus ATCC204305 (setting [6]), in the experiment with A. flavus ATCC204304 (setting [6]) and against C. albicans ATCC90028 (setting [6]) were 1 µg/mL (≈ 0.977 µM), 0.5 µg/mL (≈ 0.489 µM) and 0.25 µg/mL (≈ 0.244 µM), respectively.

For `C[C@@H]1[C@H](O)[C@@H](C)/C=C/C=C/C=C/C=C/C=C/C=C/C=C/[C@H](O[C@@H]2O[C@H](C)[C@@H](O)[C@H](NC(=O)CN(C)C)[C@@H]2O)C[C@@H]2O[C@](O)(C[C@@H](O)C[C@@H](O)[C@H](O)CC[C@@H](O)C[C@@H](O)CC(=O)O[C@H]1C)C[C@H](O)[C@H]2NC(=O)NNC(N)=O` [I-326], the MIC turned out to be 1 µg/mL (≈ 0.925 µM) in the experiment with A. fumigatus ATCC204305 (setting [6]), 1 µg/mL (≈ 0.925 µM) against A. flavus ATCC204304 (setting [6]) and 0.25 µg/mL (≈ 0.231 µM) in the experiment with C. albicans ATCC90028 (setting [6]).
